# Measurements: patent US6855329B1, “Surface coating spatially controlled patterns” (Massachusetts Institute of Technology, priority 1998, dated 2005)
# Legend:
# [1] = cited from earlier work
# [2] = tested on: smooth muscle cells, fibroblasts or platelets; conditions: binds to the integrin on human endothelial cells; cited from earlier work
# [3] = tested on: PC12 cells; conditions: NGF-primed cells, 48hr
# Experimental: (§1) A patterned polymer surface is prepared as described in Example 1;
# (§2) Bovine aortic endothelial cells (BAECs) were maintained in low glucose Dulbecco's modifed Eagle's medium (DMEM) supplemented with 10% fetal bovine serum, 0.5% penicillin, 0.5% streptomycin and 1% L-glutamine in a humidified incubator at 37° C. and 5% CO2. Cells were passaged by trypsinisation before reaching confluence, usually every fifth day. Fresh media were added every other day. PC12 cells (ATCC CRL 1721) were grown in suspension culture in F-12K media supplemented with 15% horse serum, 2.5% fetal bovein serum, 0.5% penicillin, 0.5% streptomycin and 1% L-glutamine in a humidified incubator at 37° C. and 5% CO2. Cells were passaged 1:5 every third day. All cell culture reagents were obtained from Sigma unless otherwise stated.
# (§3) BAECs between passages 7 and 9 were removed from tissue culture flasks by trypsinisation, pelleted by centrifugation, resuspended, washed three times and diluted to the appropriate concentration in serum-free MDEM. PC12 cells were primed with culture medium containing 50 ng/ml 7S nerve growth factor (NGF) 48 h prior to the experiment. The cells were pelleted by centrifugation, washed three times with serum-free F-12K medium, passed through a 22-guage needle to obtain a single cell suspension, and diluted to the appropriate concentration with serum-free. F-12K medium supplemented with 50ng/ml 7S NGF. For both cell types, approximately 10,000 cells/cm^2 were added to each sample and the plates returned to the incubator for the duration of the experiment (48hr). At the end point of the experiment, the samples were washed gently with PBS to remove unattached cells and visualised with a Nikon Diaphot TMD inverted microscope equipped with a Hitachi HV-C20 high resolution CCD video camera using phase contrast objectives. Images were digitised using NIH Image (v1.61) image analysis software. In addition, some BAEC samples were fixed in 10% neutral buffered formalin for 10 min, washed with water, and stained with hematoxylin for visualisation.
# [4] = tested on: Bovine aortic endothelial cells (BAECs); conditions: 48hr
# Experimental: as §1, §2, §3
substance,measurement,setting,value
CSRARKQAASIKVAVSADR,water solubility,[1],water soluble
IKVAV (SEQ ID NO:2),water solubility,[1],not significantly water soluble
REDV (SEQ ID NO:4),"adhesion or spreading of smooth muscle cells, fibroblasts or platelets",[2],does not support adhesion or spreading
biotin-G5CSRARKQAASIKVAVSADR (SEQ ID NO:19),neurite outgrowth of PC12 cells on the micropattern,[3]; neurites restricted from crossing the line boundary,Directionally controlled neurite outgrowth was stimulated
same,adherence of PC12 cells to functionalised lines,"[3]; serum-free F-12K with 50ng/ml 7S NGF, only a small degree of cell adhesion between the lines",selective adherence
biotin-G11 GRGDS (SEQ ID NO:18),cell adhesion to the 30 or 12 μm-wide lines,[4]; 30 or 12 μm-wide lines,little cell adhesion
same,cell coverage of the 70 and 50 μm width lines,[4]; 70 and 50 μm width lines,Complete cell coverage
same,adhesion and spreading of BAECs on functionalised lines,"[4]; serum-free medium, approximately 10,000 cells/cm^2, no adhesion to unfunctionalised areas between the lines",adhered and spread
